Experimental data reported in patent US10533018B2, “Antimicrobial prochelators to target drug-resistant bacteria and methods of making and using the same” (Duke University, priority 2015, dated 2020).
Read-outs that look alike come from different tables or passages of the source.

Columns and labels:
[1] = system: Klebsiella pneumonia (Klebs); test: Broth microdilution growth inhibition (OD600); format: cell-based
Source text: Bacterial culture reagents including LB broth (Lennox), agar-agar, ampicillin, and ceftriaxone were purchased from Sigma Aldrich Corp. The Escherichia coli (E. coli) K12 strain HB101 and pGLO E. coli transformation kit purchased from Bio-Rad Laboratories Inc. HB101 was transformed with the bla gene via the pGLO plasmid. The bla gene encodes for a TEM-1 β-lactamase that imparts penicillin resistance to the mutant E. coli K-12 strain (+Bla). Strains E. coli UTI89, [27] pCOM-GFP-transformed E. coli UTI89 (pCOM-GFP), [28] and Methicillin-Resistant Staphylococcus aureus (MRSA) clone USA300 [29] have been previously described. The Extended-Spectrum β-Lactamase (ESBL) E. coli, Klebsiella pneumonia (Klebs), and Pseudomonas aeruginosa (Pseudo) strains were clinical isolates acquired deidentified from Duke Hospital and tested for antibiotic susceptibility in the Clinical Microbiology Laboratory using standard clinical susceptibility methods.
(§1) Cultures were incubated on LB (Lennox, Sigma) agar at 37° C. in ambient atmospheric composition. Before beginning an experiment, a single bacterial colony grown on LB agar was resuspended in 2 mL LB broth and incubated overnight to form a turbid cell suspension. The overnight culture was diluted 1:100 in LB and used immediately as the working culture. To assess the antibacterial activity of compounds, the working bacterial culture was aliquoted in a clear, flat-bottomed, 96-well polystyrene plate (Costar) and the compound of interest was added in 2-fold serial dilution from 500 to 1 μM. Plates were covered with a breathable sealing film (Aeroseal, Genesee Scientific) and incubated at 37° C. in ambient atmospheric composition with shaking at 200 rpm. Optical density at 600 nm was recorded after 4 h and 20 h for each well using a standard OD600 protocol with LB serving as the blank. The resulting dose-response curves were fit to a nonlinear regression in GraphPad Prism Version 6 to calculate the IC50 of DB4-51 in each strain.
The ability of DB4-162 to inhibit bacterial growth was assessed by a traditional broth microdilution method that assesses the turbidity of liquid cultures in the presence of varying concentrations of the compound. As described above for DB4-51, the antibacterial properties of the prochelator DB4-162 were assessed in non-pathogenic lab-strain HB101K-12 E. coli and compared to the pGLO-transfected mutant HB101K-12 E. coli that express β-lactamase. Clinically relevant pathogenic bacteria were also screened, including UTI89 E. coli, pCOM transfected UTI89 E. coli (pCOM), extended spectrum β-lactamase (ESBL) E. coli, methicillin-resistant Staphylococcus aureus (MRSA), and Klebsiella pneumonia (Klebs). In addition to being naturally resistant to many β-lactam antibiotics, MRSA can produce a number of β-lactamases. […] It should be noted that all of the bacteria tested are gram-negative except for gram-positive MRSA.
The goal of this screen was to calculate the IC50 of the prochelator in a series of pathogenic bacteria and compare these values to the IC50 of known antibiotics in those same strains to determine the relative effectiveness of DB4-162 against the drug-resistant and drug-susceptible bacteria in comparison to current antibiotic treatment options. Bacterial growth was monitored in LB broth at 37° C. in the presence and absence of DB4-162 for 20 hours. A concentration gradient of DB4-162 from 500 to 0 μM was used to screen all 7 strains of bacteria and the dose-response curves were fit to a […] to calculate the IC50 of DB4-162 in each strain. These IC50 values are an approximation of how effectively DB4-162 inhibits the growth of each bacterial strain in vitro.
IC50 values for ampicillin were calculated via broth microdilution in LB broth only. Values are listed as the mean followed by the 95% confidence interval about the mean. Mean and confidence intervals were calculated from a variable slope, nonlinear regression fit to the dose-response OD600 data. […]

[2] = system: +Bla K-12 E. coli; format: cell-based, Escherichia coli; conditions: 1 h, ICP-MS; for increase in cell-associated copper over the CuCl2 control: 10 μM compound + 10 μM supplemental CuCl2; for changes in cell-associated copper, iron, or zinc vs untreated control: 2.5-10 μM compound alone
Method: PT is recognized as an ionophore that shuttles metals across cell membranes and thereby disrupts cellular metal homeostasis. […] To test this hypothesis, inductively-coupled plasma mass spectrometry (ICP-MS) was used to measure the concentration of cell-associated copper, iron, and zinc for +Bla K-12 E. coli grown under a variety of conditions. Untreated E. coli grown in LB media were compared to those incubated for one hour in LB containing 0, 2.5, 5, or 10 μM DB4-51 or PT with and without 10 μM supplemental CuCl2. The concentrations of cell-associated metals in +Bla E. coli grown in these conditions are reported as a ratio against bacterial growth as measured by the OD600 reading at the time of sampling.
FIG. 6: Cellular metal concentrations of +Bla K-12 E. coli. Cultures of +Bla K-12 E. coli were incubated for 1 h in LB media, LB containing no treatment, 10 μM added CuCl2, and DB4-51 (top) or PT (bottom) at indicated concentrations in the absence or presence of 10 μM CuCl2. Metal contents of cell pellets were analysed via ICP-MS and reported as a function of OD600.

[3] = system: CCD-19Lu human lung fibroblast cells
Method: CellTox Green LDH Cytotoxicity Detection Kit was purchased from Promega. Cell lines were purchased from the ATCC. All work was performed in a laminar-flow hood using sterile techniques. […] After splitting and counting, black, clear bottom 96-well plates were seeded at a density of 15,000 cells/well and incubated overnight at 37° C. in a fully humidified atmosphere containing 5% CO2. […] Untreated cells served as the negative control while wells containing untreated cells incubated with 1% Triton X-100 served as the positive control.
Using a cytotoxicity assay, the viability of mammalian cells was monitored as a function of their membrane integrity.

[4] = system: 7 bacterial strains; test: Broth microdilution, summary across strains tested; format: cell-based
Method: as §1

[5] = Klebsiella pneumoniae, LB + 10 μM CuCl2
[6] = Klebsiella pneumoniae, LB + 500 μM BCS
[7] = Klebsiella pneumoniae, LB broth

Row | Compound | IC50 [1, 5] [nM] | IC50 [1, 6] [nM] | increase in cell-associated copper over the CuCl2 control [2] | changes in cell-associated copper, iron, or zinc vs untreated control [2] | LD50 ([3]; 24 h) [µM] | cytotoxicity ([3]; below 250 μM, 24 h) | IC50 of DB4-51 relative to that of PT ([4]; most ampicillin-resistant strains tested) | IC50 [1, 7] [nM] | cell death ([3]; concentrations below 500 μM, 24 hour) [%] | IC50 ([4]; 500 μM BCS, depending on strain, read-out: IC50 across strains under Cu limiting conditions) [nM] | IC50 ([4]; LB broth, span over 7 strains, read-out: IC50 across all strains tested) [nM] | IC50 ([1]; LB broth) [nM]
1 | O=C(Cc1ccccc1)N[C@@H]1C(=O)N2C(C(=O)O)=C(CSc3cccc[n+]3[O-])CS[C@H]12 [DB4-51, 2-((((6R,7R)-2-carboxy-8-oxo-7-(2-phenylacetamido)-5-thia-1-azabicyclo[4.2.0]oct-2-en-3-yl)methyl)thio)pyridine 1-oxide] | 25 | 20 | slight but statistically insignificant increase | no significant changes | > 500 | non-toxic | 2-5 fold |  |  |  |  | 
2 | [O-][n+]1ccccc1S [PT, 2-mercaptopyridine N-oxide] | 9 | 19 | 30 fold | no significant changes |  |  |  | 11 | ≤ 50 | 6000 to 20000 | 2000 to 11000 | 
3 | Cc1csc(=S)n1OCC1=C(C(=O)O)N2C(=O)[C@@H](NC(=O)Cc3ccccc3)[C@H]2SC1 [DB4-162, (6R,7R)-3-(((4-methyl-2-thioxothiazol-3(2H)-yl)oxy)methyl)-8-oxo-7-(2-phenylacetamido)-5-thia-1-azabicyclo[4.2.0]oct-2-ene-2-carboxylic acid] | 22000 | 24000 |  |  |  |  |  | 28000 |  |  |  | 
4 | CC1(C)S[C@@H]2[C@H](NC(=O)[C@H](N)c3ccccc3)C(=O)N2[C@H]1C(=O)O [Ampicillin] |  |  |  |  |  |  |  |  |  |  |  | > 250000
